Key:
[1] = system: RAW 264.7 macrophages; experiment: MTT-based cell viability assay; details: concentrations tested in anti-inflammatory assays
Procedure: The effect of the treatments on cell viability was measured using MTT [3-(4,5-dimethyl-2-thiazolyl)-2,5-diphenyltetrazolium bromide] (TCI, Portland, Oreg.) (Mosmann, 1983). MTT (5 mg/mL) was dissolved in PBS (Cayman Chemical, Ann Arbor, Mich.), filtered through a 0.22 μm membrane and added to treated cells during the last 3-4 hours of treatment. Media were carefully aspirated and cells were dissolved in DMSO. The absorbance was read at 570 nm.

[2] = system: TNF-α; experiment: LPS-induced TNF-α gene expression in RAW 264.7 macrophages (qPCR); type: cell-based; details: any of the concentrations tested; LPS-induced RAW 264.7
Procedure: (§1) All reagents were supplied from Sigma-Aldrich Co. (St. Louis, Mo.) unless otherwise noted. RAW 264.7 macrophages (ATCC TIB-71) were maintained in Dulbecco's modified Eagle's medium (Caisson, North Logan, Utah) supplemented with 100 U/mL penicillin, 100 μg/mL streptomycin, and 10% fetal bovine serum. Cells were incubated at 37° C. in a 5% CO2 humidified atmosphere and subcultured by cell scraping. For experiments, RAW cells were plated at a density of 4×10^5 cells/mL in 24-well plates. Cells were incubated overnight (18 h), washed with warm 37° C. PBS, and medium was replaced fresh DMEM medium. […] Lipopolysaccharide (1 μg/mL) was added after 2 h incubation with treatments to elicit inflammatory responses. Cells were treated in duplicate or triplicate. After an additional 6 h incubation period, media were collected and cells were washed with PBS prior to collection in TRIzol® Reagent (Ambion, Life Technologies). […]
(§2) Total RNA was extracted from cells according to manufacturer's specifications. […] RNA integrity was evaluated by running about 1 μg of RNA on a 1% agarose gel. […]
(§3) Quantitative PCR amplifications were performed on an ABI 7300 Real-Time PCR System (Applied Biosystems) with the following thermal cycler profile: 2 minutes, 50° C.; 10 minutes, 95° C.; 15 seconds, 95° C.; 1 minute, 60° C. for the dissociation stage; 15 seconds, 95° C.; 1 minutes, 60° C.; and 15 seconds, 95° C. […]

[3] = system: IL-6; experiment: LPS-induced IL-6 gene expression in RAW 264.7 macrophages (qPCR); type: cell-based; details: 5 μM; LPS-induced RAW 264.7
Procedure: as §1, §2, §3

[4] = 1:5 ratio preparations, rotoevaporation 1 hour at 50° C., compared to freeze-dried samples
From the text: Drying the 1:5 ratio preparations can be achieved by rotoevaporation, followed by freeze-drying or spray drying. […] Further concentration of MICs and removal of sugars from the extract can also be performed with solid phase-extraction (SPE).

[5] = system: IL-1β; experiment: LPS-induced IL-1β gene expression in RAW 264.7 macrophages (qPCR); type: cell-based; details: 1 and 5 μM; LPS-induced RAW 264.7
Procedure: as §1, §2, §3

[6] = Accelerated stability of MICs in moringa extract at 37° C. (LCMS); type: physicochemical; details: moringa extract stored at 37° C. for 30 days, compared to day 0
[7] = system: HII4E liver cells; experiment: In vitro gluconeogenesis: glucose production in liver cells; type: cell-based, rat; details: same concentrations as SF
Procedure: (§4) H4IIE rat hepatoma cells (CRL-1548, American Type Culture Collection, Manassas, Va.) were assayed for glucose production as previously described (21). Cell viability was measured by the 3-(4,5-Dimethyl-2-thiazolyl)-2,5-diphenyltetrazolium bromide (MTT; TCI, Portland, Oreg.) assay (22). RNA extraction, cDNA synthesis and qPCR for gene expression of PEPCK and G6P were performed as described above.

[8] = system: iNOS; experiment: LPS-induced iNOS gene expression in RAW 264.7 macrophages (qPCR); type: cell-based; details: 1 and 5 μM; LPS-induced RAW 264.7
Procedure: as §1, §2, §3

[9] = In vitro gluconeogenesis: glucose production in liver cells; type: cell-based, rat; details: Rattus norvegicus; range of 5 concentrations, HII4E liver cells
Procedure: as §4

C[C@@H]1O[C@@H](Oc2ccc(CN=C=S)cc2)[C@H](O)[C@H](O)[C@H]1O [MIC-1, 4-[(α-rhamnosyloxy)benzyl]isothiocyanate]
cytotoxicity (MTT-based cell viability) [1]: no signs of cytotoxicity
TNF-α gene expression [2]: no reduction
IL-6 gene expression [3]: decrease IL-6 gene expression significantly
loss of MIC under rotoevaporation conditions [4]: No significant loss
mRNA expression of IL-1β [5]: significant reduction
degradation of MIC in moringa extract [6]: approximately 80%
glucose production, activity compared to SF [7]: superior activity to SF
mRNA expression of iNOS [8]: significant reduction

CC(=O)O[C@@H]1[C@@H](O)[C@@H](O)[C@H](Oc2ccc(CN=C=S)cc2)O[C@H]1C [MIC-4, 4-[(4′-O-acetyl-α-rhamnosyloxy)benzyl]isothiocyanate]
cytotoxicity (MTT-based cell viability) [1]: no signs of cytotoxicity
TNF-α gene expression [2]: no reduction
loss of MIC under rotoevaporation conditions [4]: No significant loss
mRNA expression of IL-1β [5]: significant reduction
degradation of MIC in moringa extract [6]: ~20%
glucose production, activity compared to SF [7]: superior activity to SF
mRNA expression of iNOS [8]: significant reduction

CN(C)C(=N)N=C(N)N [metformin, reference compound]
IC50 [9]: 800 µM
